The text below walks through data of patent US20230134843A1, “TREATMENT OF STEM CELL DEFICIENCY” (OSPEDALE SAN RAFFAELE S.R.L., priority 2020, published 2023).

SMILES strings stand for the structures. “Also recorded” adds a separate entry of the source.

This test deals with conjunctival cells. The experiment in a line: Conjunctival and corneal epithelial cell identification (CK8, CK19, CK12 immunofluorescence), stem cell deficiency model. The format is in vivo, mice. To be noted: Fosaprepitant 1 mg/mL (FOSA 1). The text has this:
Eight-week-old male mice C57BL6/N (Charles River, Calco, Italy) (WT mice, n=18) and Tac1-deficient B6.Cg-Tac1tm1Bbm/J (Jackson Laboratories, Bar Harbor, Me., USA) (TAC1-KO mice, n=18) were used in all experiments. TAC1-KO mice are homozygous null for the Tac1 gene. […] The corneal thickness and transparency as well as the corneal nerve length are similar to C57BL/6 mice [Barbariga M, Rabiolo A, Fonteyne P, Bignami F, Rama P, Ferrari G. The effect of aging on nerve morphology and substance P expression in mouse and human corneas. Investig Ophthalmol Vis Sci 2018; 59:5329-35. https://doi.org/10.1167/iovs.18-24707.]. Each animal was anesthetized with an intraperitoneal injection of tribromoethanol (250 mg/kg) and a topical anesthetic was applied to their ocular surface prior to the surgical procedure. Total disepithelization was performed based on the model previously described [Amirjamshidi H, Milani B Y, Sagha H M, Movahedan A, Shafiq M A, Lavker R M, et al. Limbal fibroblast conditioned media: A non-invasive treatment for limbal stem cell deficiency. Mol Vis 2011; 17:658], using a blunt spatula to scrap the entire corneal epithelium, including the limbus. Then, fluorescein staining was used to confirm complete removal of the corneal epithelium under the blue light of a slit-lamp microscope. After wounding, eyes were treated with ophthalmic moxifloxacin 1 time/day for 1 week to […]. Fourteen days after disepithelization mice were euthanized using carbon dioxide inhalation and subsequent cervical dislocation. Corneas were collected for immunostaining and western blot analysis. […]
The presence of conjunctival epithelial cells was evaluated by immunofluorescence. […] A negative control using only the secondary antibody was used to establish a fluorescence threshold. Then, the fluorescent intensity was quantified in terms of the percentage of positive area (% area) in the epithelium.

In the case of `C[C@@H](O[C@H]1OCCN(Cc2nc(=O)n(P(=O)(O)O)[nH]2)[C@H]1c1ccc(F)cc1)c1cc(C(F)(F)F)cc(C(F)(F)F)c1` [Fosaprepitant, [3-{[(2R,3S)-2-[(1R)-1-[3,5-bis(trifluoromethyl)phenyl]ethoxy]-3-(4-fluorophenyl)morpholin-4-yl]methyl}-5-oxo-2H-1,2,4-triazol-1-yl]phosphonic acid], the “CK12 expression in the corneal epithelium compared to WT” value (p<0.001) was “increase”. Further, the “CK8 conjunctival cells infiltrating the cornea compared to WT” value (p<0.01) is “Reduced number; also recorded: reduction”. In addition, the “CK19 conjunctival cells compared to WT” value (p<0.05) is given as “significant decrease; also recorded: reduction”.
